Test results from US10590454B2, “Methods of preventing and removing trisulfide bonds” (Biogen MA Inc., priority 2011, dated 2020).

Legend:
[1] = tested on: cysteine degradation (release of hydrogen sulfide); experiment: Release of hydrogen sulfide from cysteine-containing medium with inhibitors of cysteine degradation; details: cell-culture medium, inhibitor 17.7 mM (1:1 to cysteine), 24 hours
Experimental: In order to test the effect of cysteine degradation inhibitors on release of hydrogen sulfide in cell-culture medium, various inhibitors were added to the medium at the concentration of 17.7 mM, which represents a 1:1 ratio to the concentration of cysteine in the medium. Released hydrogen sulfide concentration was measured after 24 hours of incubation. Briefly, 50 ml of medium was incubated overnight in a closed 100 ml bottle. The headspace was therefore equal to the liquid volume of the container. A Jerome 631-X hydrogen sulfide detector was connected to a short piece of silicon tubing to minimize holdup volume in the instrument. The end of the tubing was inserted into the headspace of the medium-containing bottle, and the Jerome 631-X detector sampled the headspace immediately after opening the bottle.
The effect of pyruvate on release of hydrogen sulfide from cysteine degradation was further tested. The experiments were performed as described above in Example 9. Concentration of released hydrogen sulfide was measured after incubation from solutions containing 17.7 mM cysteine, plus 200 g/L glucose or subgroups of amino acids, in the absence or presence of pyruvate.
The effect of pyruvate on release of hydrogen sulfide from cysteine degradation was also tested in various cell-culture media, including feed liquid, IMDM and DMEM. All cysteine concentrations were normalized to that in the feed liquid. 17.7 mM pyruvate was added to the medium, which represents a 1:1 ratio of cysteine to pyruvate in the medium. The experiments were performed as described above for Example 9. […] Thus, pyruvate can reduce cysteine degradation and H2S release in a variety of compositions and decrease the number of trisulfide bonds.

[2] = Heat induced fragmentation, non-reducing capillary electrophoresis (CE-SDS); format: physicochemical; details: 70° C. for 3 minutes with iodoacetamide; compared to mAb-A-LT
Experimental: In these experiments, analysis of IgG1 mAb was performed by denaturing, non-reducing capillary electrophoresis in the presence of sodium dodecyl sulfate using an IgG Purity/Heterogeneity Assay Kit (# A10663) and ProteomeLab PA-800 instrument (Beckman Coulter). Samples (200 μg) were prepared by heating to 70° C. for 3 minutes in the presence of iodoacetamide, 1 mM SDS and a 10 kDa standard essentially as per manufacturer's instructions (Protocol A10424-AC) and separated for 35 min in a bare fused silica capillary with detection at 220 nm. The results, shown in FIGS. 1A and 1B show an increased level of fragmentation following sample preparation for non-reducing electrophoresis. The electrophoretic migration pattern of the single most abundant fragment was consistent with the loss of one light chain (L) from the intact mAb with the simultaneous generation of a species consisting of two heavy chains and one light chain (HHL fragment). This phenomenon was then used to rapidly screen for conditions that influence trisulfide content in IgG1 mAbs. In this screen, non-reducing electrophoresis was used as a rapid assay for detection of trisulfide bonds.

[3] = Differential scanning calorimetry; format: physicochemical; details: preparations with low or high H-L trisulfide or treated with 1 mM cysteine; 25° C. to 100° C.
Experimental: The DSC was performed using a MicroCal capillary VP-DSC system (Northampton, Mass., USA) with Origin VPViewer2000 v2.0.64 software. Sample concentration was 0.5 mg/mL in 50 mM sodium phosphate, 100 mM NaCl, pH 6.0. Thermograms were generated by scanning temperature from 25° C. to 100° C. at a rate of 2° C./min.

[4] = Stability of trisulfides in vivo in rats after intraperitoneal injection; details: rat, 100 mg/kg intraperitoneally, based on column recoveries
Experimental: The samples were incubated with 100 μL of the resin for 2 h at room temperature with mild agitation. The resin was then washed six times with 0.5 mL of PBS and six times with 0.5 mL of 25 mM sodium phosphate, 100 mM NaCl, pH 5.5, after which the bound antibody was eluted with 25 mM sodium phosphate, pH 2.8, 100-mM NaCl. […] Portions of the serum (750 μL for the 24-h point, and 1050 μL for the 72-h point) were subjected to IgSelect purification using 150 μL of IgSelect (protocol described above).

Compound | Release of hydrogen sulfide [1] | other results
O=CC(O)CO (racemic) [DL-glyceraldehyde] | functionally stopped release of hydrogen sulfide | –
CCOC(=O)C(C)=O [ethyl pyruvate] | functionally stopped release of hydrogen sulfide | –
O=CC(=O)O [glyoxylic acid] | functionally stopped release of hydrogen sulfide | –
COC(=O)C(C)=O [methyl pyruvate] | functionally stopped release of hydrogen sulfide | –
mAb1: anti-LINGO-1 antibody Li81, human IgG1 produced in CHO cells | – | Sensitivity to heat treatment (fragmentation to HHL species) [2]: increased sensitivity to extreme heat treatment; Transition temperature profiles [3]: no differences in transition temperature profiles detected; Level of mAb1 in the serum ([4]; after 24 h): 850 µg/mL; Level of mAb1 in the serum ([4]; after 72 h): 700 µg/mL
